Drawing on patent publication US20070167411A1, “Compositions for treating angina” (Medicure International Inc., priority 2003, published 2007), this text covers glucose oxidation rates and solubility for two compounds.

Series [1] relates to isolated non-ischemic working rat heart. In words: Glucose oxidation rates in isolated working rat heart perfusion ([14C] glucose, 14CO2 production). As to conditions: 60 minutes aerobic perfusion, compound added about 5 minutes into aerobic period, saline control 1580±183. As for the experimental part:
The goal was to determine if […] altered glucose oxidation rates or cardiac function in the isolated non-ischemic working rat heart model. This was achieved by subjecting rat hearts to 60 minutes of aerobic perfusion. […] was added about 5 minutes into the aerobic period and the effects of […] on glucose metabolism was determined during the aerobic period. […] Rat hearts were cannulated for isolated working heart perfusions as described previously (Lopaschuk et al., J Pharmacol Exp Ther. 1993 Jan; 264(1):135-44). In brief, male Sprague-Dawley rats (0.3-0.35 kg) were anesthetized with pentobarbital sodium (60 mg/kg i.p.). The hearts were quickly excised, the aorta was cannulated, and a retrograde perfusion at 37° C. was initiated at a hydrostatic pressure of 60 mm Hg. Hearts were trimmed of excess tissue, and the pulmonary artery and the opening to the left atrium were then cannulated. […] Spontaneously beating hearts were used in all perfusions, heart rate and aortic pressure were measured with a Biopac Systems Inc. blood pressure transducer connected to the aortic outflow line. Cardiac output and aortic flow were measured with Transonic […] ultrasonic flow probes in the preload and afterload lines, respectively. Coronary flow was calculated as the difference between cardiac output and aortic flow. […]

For series [2] the following is noted: water, alcohol, and ether; cited from earlier work.

The structures appear in SMILES notation.

With `O=C(O)C(Cl)Cl` [DCA, dichloroacetic acid, reference compound], in series [1], the glucose oxidation rates turned out to be 2422±140.

On to `Cc1ncc(COP(=O)(O)O)c(C=O)c1O` [Example P5P, 3-hydroxy-2-methyl-5-[(phosphonooxy)methyl]-4-pyridine-carboxaldehyde], for which the glucose oxidation rates in series [1] is recorded as 2253±230. The solubility entry in series [2] is “essentially insoluble in water, alcohol, and ether”.
